Laboratory results as given in publication PMC3408500, “Development of a High-Throughput Assay for Identifying Inhibitors of TBK1 and IKKε” (PLoS ONE, 2012).
Where “and” joins values, the source holds several entries; their conditions need not be identical. Identical values can stand only once. Counter-ions that a name gives are not always drawn. Like-named read-outs stand apart in the source and are kept apart here.

What was measured:
[1] = biological target: T1, IKKα (Homo sapiens, UniProt O15111); assay: MCE kinase assay, phosphorylation of FL-1 peptide by IKKα (secondary screen); type: biochemical; conditions: for inhibition at 10 µM: read-out: percent inhibition of IKKα
T1 construct: purchased Life Technologies (Invitrogen)
T1 sequence (O15111 1-745): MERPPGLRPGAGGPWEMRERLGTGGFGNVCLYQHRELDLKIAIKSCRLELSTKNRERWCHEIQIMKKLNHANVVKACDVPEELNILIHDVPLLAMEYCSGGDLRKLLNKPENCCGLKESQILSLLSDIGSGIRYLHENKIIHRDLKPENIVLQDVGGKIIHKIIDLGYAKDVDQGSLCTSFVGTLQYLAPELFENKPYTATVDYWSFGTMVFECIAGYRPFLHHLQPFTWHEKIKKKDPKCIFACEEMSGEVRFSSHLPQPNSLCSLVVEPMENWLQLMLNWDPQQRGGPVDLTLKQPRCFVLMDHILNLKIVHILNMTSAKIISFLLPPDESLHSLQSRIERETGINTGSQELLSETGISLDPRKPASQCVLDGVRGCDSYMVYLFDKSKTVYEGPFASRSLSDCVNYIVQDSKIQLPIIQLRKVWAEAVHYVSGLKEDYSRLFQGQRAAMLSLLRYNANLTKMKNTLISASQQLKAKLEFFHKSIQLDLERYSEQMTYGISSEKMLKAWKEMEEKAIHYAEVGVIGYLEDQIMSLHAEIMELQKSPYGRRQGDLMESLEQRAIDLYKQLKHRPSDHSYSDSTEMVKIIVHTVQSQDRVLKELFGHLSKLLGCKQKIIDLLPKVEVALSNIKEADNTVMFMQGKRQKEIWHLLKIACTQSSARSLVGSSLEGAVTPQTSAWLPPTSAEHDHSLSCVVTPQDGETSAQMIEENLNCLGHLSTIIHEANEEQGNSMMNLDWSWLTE
Method: As IKKβ and IKKα are closely related to TBK1 and IKKε, it was important to determine the specificity of any candidate inhibitors. A secondary screen was therefore performed to evaluate the ability of the top-scoring TBK1 and IKKε inhibitors to inhibit the canonical IKKs. […] Enzyme concentrations were titrated and fixed to 11.5 µM for IKKα and 1.1 µM for IKKβ and the screen was performed as described above for TBK1 and IKKε. […]
Kinase buffer contained 50 mM Tris (pH 7.5), 12 mM MgCl2, 1 mM β-glycerophosphate, 100 µM ATP, and 10 µCi γ-^32P-ATP/reaction. Reactions were incubated at 30°C for 1h. Recombinant GST-TBK1 and GST-TBK1 K38A used in the positional scanning peptide library assay were generated as described above and the assay was performed as described previously, [28]. […]

[2] = biological target: T2, TBK1 (Homo sapiens, UniProt Q9UHD2); assay: MCE (microfluidic capillary electrophoresis) kinase assay, phosphorylation of 5-FAM-TBK1-Tide by TBK1; type: biochemical; conditions: for inhibition at 10 µM: read-out: percent inhibition of TBK1
T2 construct: purchased Life Technologies (Invitrogen)
T2 sequence (Q9UHD2 1-729): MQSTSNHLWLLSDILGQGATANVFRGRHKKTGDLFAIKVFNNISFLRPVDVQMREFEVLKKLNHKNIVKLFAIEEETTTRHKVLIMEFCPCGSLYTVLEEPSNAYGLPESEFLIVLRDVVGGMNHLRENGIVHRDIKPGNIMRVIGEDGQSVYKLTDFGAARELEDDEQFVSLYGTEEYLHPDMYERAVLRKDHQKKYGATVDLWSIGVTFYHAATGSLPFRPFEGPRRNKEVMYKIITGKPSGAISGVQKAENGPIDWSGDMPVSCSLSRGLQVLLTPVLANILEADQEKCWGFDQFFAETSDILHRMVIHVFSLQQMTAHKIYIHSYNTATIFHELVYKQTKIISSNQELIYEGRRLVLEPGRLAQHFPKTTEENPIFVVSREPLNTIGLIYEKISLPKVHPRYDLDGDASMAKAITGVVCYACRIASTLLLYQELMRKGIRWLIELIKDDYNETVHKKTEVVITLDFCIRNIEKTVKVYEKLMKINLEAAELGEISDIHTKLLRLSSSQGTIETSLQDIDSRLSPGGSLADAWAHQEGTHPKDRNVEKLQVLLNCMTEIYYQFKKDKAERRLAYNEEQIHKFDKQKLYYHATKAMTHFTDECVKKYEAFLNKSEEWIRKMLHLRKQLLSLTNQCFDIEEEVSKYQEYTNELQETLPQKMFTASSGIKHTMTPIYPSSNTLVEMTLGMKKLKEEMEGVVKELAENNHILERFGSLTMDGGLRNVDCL
Method: (§1) MCE operates on the principle that small fluorescently-labeled peptide substrates from ∼100 nanoliter sized aliquots of reaction samples are separable in a capillary channel etched in a quartz microfluidic chip ratio when a current is applied, [30]. […] TBK1-Tide was synthesized with an N-terminal 5– Carboxyfluorescein (5-FAM) dye for use as a substrate. […] The enzyme concentrations were then titrated and fixed to 120 nM for TBK1 and 81 nM for IKKε.
(§2) Compounds were screened at a final concentration of 10 µM in 0.1% DMSO. Two libraries of compounds were tested. […] This library was tested in duplicate to establish the reproducibility of the screen (Figure S2). A second kinase-focused library consisting of 4,727 unique and “rule of five” compliant compounds was also tested (Figures 5A and B). […]

[3] = biological target: T3, IKKε (Homo sapiens, UniProt Q14164); assay: MCE kinase assay, phosphorylation of 5-FAM-TBK1-Tide by IKKε; type: biochemical; conditions: for inhibition at 10 µM: read-out: percent inhibition of IKKε
T3 construct: purchased Life Technologies (Invitrogen)
T3 sequence (Q14164 1-716): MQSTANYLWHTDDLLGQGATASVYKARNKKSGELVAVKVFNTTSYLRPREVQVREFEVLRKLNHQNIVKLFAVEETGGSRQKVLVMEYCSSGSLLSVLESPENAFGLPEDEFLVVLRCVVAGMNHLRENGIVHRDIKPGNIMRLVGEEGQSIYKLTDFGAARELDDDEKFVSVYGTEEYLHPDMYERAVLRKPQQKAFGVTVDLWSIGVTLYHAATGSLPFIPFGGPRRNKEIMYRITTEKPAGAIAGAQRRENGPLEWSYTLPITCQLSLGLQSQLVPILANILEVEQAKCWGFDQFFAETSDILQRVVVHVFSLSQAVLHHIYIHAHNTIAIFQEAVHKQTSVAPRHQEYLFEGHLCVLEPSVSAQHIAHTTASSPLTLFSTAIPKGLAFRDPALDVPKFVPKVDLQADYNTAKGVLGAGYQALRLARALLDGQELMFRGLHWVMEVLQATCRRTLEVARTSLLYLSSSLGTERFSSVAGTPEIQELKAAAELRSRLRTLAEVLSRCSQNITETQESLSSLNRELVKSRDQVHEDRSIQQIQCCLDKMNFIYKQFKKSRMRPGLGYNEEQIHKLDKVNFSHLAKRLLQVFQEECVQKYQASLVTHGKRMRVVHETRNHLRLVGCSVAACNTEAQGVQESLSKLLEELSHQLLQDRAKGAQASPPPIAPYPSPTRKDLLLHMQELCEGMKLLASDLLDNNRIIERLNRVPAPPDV
Method: as §1, §2

[4] = biological target: IKKβ (Homo sapiens, UniProt O14920); conditions: read-out: ATP Km of IKKβ for TBK1-Tide; room temperature
Method: As IKKβ and IKKα are closely related to TBK1 and IKKε, it was important to determine the specificity of any candidate inhibitors. A secondary screen was therefore performed to evaluate the ability of the top-scoring TBK1 and IKKε inhibitors to inhibit the canonical IKKs. […] Enzyme concentrations were titrated and fixed to 11.5 µM for IKKα and 1.1 µM for IKKβ and the screen was performed as described above for TBK1 and IKKε.
5-FAM-labeled TBK1-Tide for library screening was generated in the High-Throughput Peptide Synthesis and Arrays Core Facility at University of North Carolina at Chapel Hill.
Kinase buffer contained 50 mM Tris (pH 7.5), 12 mM MgCl2, 1 mM β-glycerophosphate, 100 µM ATP, and 10 µCi γ-^32P-ATP/reaction. Reactions were incubated at 30°C for 1h. Recombinant GST-TBK1 and GST-TBK1 K38A used in the positional scanning peptide library assay were generated as described above and the assay was performed as described previously, [28]. […] IKKε reactions were incubated for 2 hours at room temperature and TBK1, IKKα, and IKKβ reactions were incubated for 6 hours at room temperature.

[5] = test system: ERRα; set-up: method as in LOPAC library description; conditions: transient transfection assays using GAL4-ERR LBD or full-length ERR with the mSHP promoter; ref LOPAC library description; cited from earlier work
[6] = compound at 10 µM, after 2 hours (at completion of the assay), LOPAC set

Sequence of IKKβ (O14920 whole entry): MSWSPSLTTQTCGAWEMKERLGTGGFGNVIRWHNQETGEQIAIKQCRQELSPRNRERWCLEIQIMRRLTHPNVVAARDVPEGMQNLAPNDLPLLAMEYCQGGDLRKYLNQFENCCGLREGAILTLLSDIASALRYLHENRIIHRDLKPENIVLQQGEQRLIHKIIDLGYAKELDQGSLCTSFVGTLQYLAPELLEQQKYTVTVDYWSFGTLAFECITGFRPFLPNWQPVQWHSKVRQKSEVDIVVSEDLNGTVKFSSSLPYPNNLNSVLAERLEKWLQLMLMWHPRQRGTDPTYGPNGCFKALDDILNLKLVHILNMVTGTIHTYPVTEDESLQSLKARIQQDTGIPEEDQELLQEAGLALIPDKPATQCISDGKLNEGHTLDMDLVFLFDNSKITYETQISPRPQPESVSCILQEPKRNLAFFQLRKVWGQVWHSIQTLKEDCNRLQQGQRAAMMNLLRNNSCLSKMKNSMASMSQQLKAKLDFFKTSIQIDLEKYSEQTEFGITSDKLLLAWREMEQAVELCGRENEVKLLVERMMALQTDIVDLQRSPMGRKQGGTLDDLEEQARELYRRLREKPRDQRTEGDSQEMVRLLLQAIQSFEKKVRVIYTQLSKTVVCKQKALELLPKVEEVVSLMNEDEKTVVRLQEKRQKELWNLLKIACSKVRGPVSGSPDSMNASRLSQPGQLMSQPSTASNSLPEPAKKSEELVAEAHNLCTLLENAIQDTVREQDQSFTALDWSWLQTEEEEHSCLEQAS

Which “percent inhibition of IKKα” value [1, 6] does the source give for `CN(C)CCC(c1ccc(Cl)cc1)c1ccccn1.O=C(O)/C=C\C(=O)O` (racemic) [UNC10100321, (±)-Chlorpheniramine maleate salt] here?
Its value is -3%.

And the “percent inhibition of TBK1” value [2, 6]?
The value was 84.5%.

And the “percent inhibition of IKKε” value [3, 6]?
Its value is 48%.

With `NC(Cc1cc(O)c(O)cc1O)C(=O)O` (racemic) [UNC10100691, 6-Hydroxy-DL-DOPA] as the molecule, how does the “percent inhibition of IKKα” value [1, 6] read?
The value was 29%.

What about the “percent inhibition of TBK1” value [2, 6] of the same molecule?
Its value is 77.5%.

What about the “percent inhibition of IKKε” value [3, 6] of the same molecule?
Its value is 61%.

Which Km ([1]; room temperature, read-out: ATP Km of IKKα for FL-1) does the source give for `Nc1ncnc2c1ncn2[C@@H]1O[C@H](COP(=O)(O)OP(=O)(O)OP(=O)(O)O)[C@@H](O)[C@H]1O` [ATP] here?
The Km was 134 µM.

And the Km ([2]; TBK1-Tide fixed at 1 µM, room temperature, read-out: Km for ATP, TBK1)?
The Km was 7.5 µM and 7.54 µM.

And the Km [4]?
The Km was 2000 nM.

And the Km ([3]; TBK1-Tide fixed at 1 µM, room temperature, read-out: Km for ATP, IKKε)?
The Km was 4.7 µM and 4.67 µM.

Which results are given for `Brc1ccc([C@H]2CN3CCSC3=N2)cc1.O=C(O)C(=O)O` [UNC10100081, (−)-p-Bromolevamisole oxalate]?
percent inhibition of IKKα [1, 6]: -2%; percent inhibition of TBK1 [2, 6]: 70%; percent inhibition of IKKε [3, 6]: 26.5%

Which inhibition at 10 µM [1, 6] does the source give for `CC(=O)NCCc1c[nH]c2ccccc12` [UNC10100161, N-Acetyltryptamine] here?
Its inhibition at 10 µM is -1.5%.

And the inhibition at 10 µM [2, 6]?
The inhibition at 10 µM was 74.5%.

What about the inhibition at 10 µM [3, 6] of the same molecule?
Its inhibition at 10 µM is 24%.

What does the source list for `O=C1Nc2ccccc2/C1=C1/Nc2ccccc2/C1=N\O` [UNC10100206, Indirubin-3′-oxime]?
percent inhibition of IKKα [1, 6]: 2.5%; percent inhibition of TBK1 [2, 6]: 58%; percent inhibition of IKKε [3, 6]: 68%

Which inhibition at 10 µM [1, 6] does the source give for `CC(=O)OCC1=C(C(=O)O)N2C(=O)[C@@H](NC(=O)CSc3ccncc3)[C@H]2SC1` [UNC10100339, Cephapirin sodium salt] here?
The inhibition at 10 µM was -0.5%.

And the inhibition at 10 µM [2, 6]?
The inhibition at 10 µM was 34%.

And the inhibition at 10 µM [3, 6]?
Its inhibition at 10 µM is 60%.

What does the source list for `Oc1c2ccccc2c2c3c(cccc13)N=N2` [UNC10100533, SP600125]?
inhibition at 10 µM [1, 6]: 10%; inhibition at 10 µM [2, 6]: 76.5%; inhibition at 10 µM [3, 6]: 53.5%

Which results are given for `O=c1cc(-c2ccccc2F)[nH]c2cc3c(cc12)OCO3` [UNC10100799, CHM-1 hydrate]?
percent inhibition of IKKα [1, 6]: 3%; percent inhibition of TBK1 [2, 6]: 67.5%; percent inhibition of IKKε [3, 6]: 12.5%

Which inhibition at 10 µM [1, 6] does the source give for `COc1ccc2c(c1)/C(=C/c1cnc[nH]1)C(=O)N2` [UNC10100994, SU9516] here?
The inhibition at 10 µM was 21.5%.

And the inhibition at 10 µM [2, 6]?
Its inhibition at 10 µM is 85.5%.

And the inhibition at 10 µM [3, 6]?
The inhibition at 10 µM was 66%.

Which results are given for `CN(C)CCC(c1ccccc1)c1ccccn1.O=C(O)/C=C\C(=O)O` (centres unmarked) [UNC10101037, Pheniramine maleate salt]?
percent inhibition of IKKα [1, 6]: -0.5%; percent inhibition of TBK1 [2, 6]: 80.5%; percent inhibition of IKKε [3, 6]: 20%

Which inhibition at 10 µM [1] does the source give for `Nc1c(S(=O)(=O)O)cc(Nc2ccc(Nc3nc(Cl)nc(Nc4cccc(S(=O)(=O)O)c4)n3)c(S(=O)(=O)O)c2)c2c1C(=O)c1ccccc1C2=O` [UNC10101110, Reactive Blue 2] here?
The inhibition at 10 µM was 55.5%.

What about the inhibition at 10 µM [2] of the same molecule?
Its inhibition at 10 µM is 74%.

What about the inhibition at 10 µM [3] of the same molecule?
Its inhibition at 10 µM is 67%.

Which “percent inhibition of IKKα” value [1, 6] does the source give for `COc1cc(/C=C(\C#N)C(=O)Nc2nnc(C(F)(F)F)s2)ccc1OCc1ccc(C(F)(F)F)cc1C(F)(F)F` [UNC10101318, XCT790] here?
Its value is 28%.

And the “percent inhibition of TBK1” value [2, 6]?
The value was 71.5%.

What about the “percent inhibition of IKKε” value [3, 6] of the same molecule?
The value was 10.5%.
